# Reference: ChEMBL document CHEMBL3886313, “Ketone linked benzothiazole inhibitors of endothelial lipase” (2015)
# Molecular target: T1, Endothelial lipase (Homo sapiens, UniProt Q9Y5X9)
# T1 sequence (Q9Y5X9 whole entry): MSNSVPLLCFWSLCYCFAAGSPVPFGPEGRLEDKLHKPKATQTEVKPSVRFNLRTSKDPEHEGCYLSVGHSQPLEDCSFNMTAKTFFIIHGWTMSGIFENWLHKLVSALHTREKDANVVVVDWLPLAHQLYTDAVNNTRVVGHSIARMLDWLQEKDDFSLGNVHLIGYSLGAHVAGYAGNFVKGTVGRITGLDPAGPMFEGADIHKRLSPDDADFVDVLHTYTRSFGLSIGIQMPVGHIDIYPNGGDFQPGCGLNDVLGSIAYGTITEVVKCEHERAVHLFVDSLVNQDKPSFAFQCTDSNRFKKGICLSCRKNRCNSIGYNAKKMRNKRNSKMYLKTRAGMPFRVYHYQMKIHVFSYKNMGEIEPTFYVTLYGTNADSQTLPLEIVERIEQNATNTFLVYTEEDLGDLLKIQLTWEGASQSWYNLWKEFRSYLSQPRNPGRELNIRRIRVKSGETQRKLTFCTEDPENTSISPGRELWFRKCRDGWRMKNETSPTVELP
# Assay: Enzymatic Assay: The enzymatic assay was measured using white, opaque 96-well half area plates. Each well contained 60 μL of assay buffer (50 mM HEPES pH 8.0, 50 mM NaCl and 1 mM CaCl2) and 2 ul of a DMSO solution containing compound of interest. Conditioned media obtained from HT-1080 cells, which were transformed by RAGE technology (Athersys) to overexpress endogenous EL, was added and the reaction was allowed to incubate for 20 min at 37° C. with gentle agitation. The reaction was started by the addition of 20 μL of a 1:4 dilution of vesicles. The final total reaction volume was 100 μL. The reaction rates were measured on a Gemini plate reader with an excitation wavelength of 488 nm and an emission of 530 nm. Readings were taken every 20 seconds for 10 min with agitation between each reading.
# Type: cell-based
row,Compound,IC50 [nM]
1,COc1nc(-c2nnc(C(=O)c3nc4ccc(-c5ccc(F)cc5)cc4s3)o2)c(OCc2ccccc2)c(=O)[nH]1,122
2,CC(C)(C)CN1CC(c2nnc(C(=O)c3nc4ccc(-c5ccc(F)cc5)cc4s3)o2)C1,4.8
3,CC(C)(C)CN1CC(c2nnc(C(=O)c3nc4c(F)cc(-c5ccccc5)cc4s3)o2)C1,18
4,COc1nc(-c2nnc(C(=O)c3nc4ccc(-c5ccccc5)cc4s3)o2)c(OCc2ccccc2)c(=O)[nH]1,76

# More lines, now with the values ahead:
row,IC50 [nM],Compound
1,66,C[C@H](NC(=O)OC(C)(C)C)c1nnc(C(=O)c2nc3ccc(-c4ccccc4)cc3s2)o1
2,< 10,O=C1NC(=O)C(Cc2nnc(C(=O)c3nc4ccc(-c5ccccc5)cc4s3)o2)S1 (stereo not given)
3,< 10,CC1(Cc2nnc(C(=O)c3nc4ccc(-c5ccccc5)cc4s3)o2)NC(=O)N(CC(F)(F)F)C1=O (stereo not given)
4,< 10,NS(=O)(=O)Cc1nnc(C(=O)c2nc3ccc(-c4ccccc4)cc3s2)o1
5,< 10,O=C1NC(=O)C(Cc2nnc(C(=O)c3nc4ccc(-c5ccccc5)cc4s3)o2)N1 (stereo not given)
6,< 10,C[C@@H](NC(=O)OC(C)(C)C)c1nnc(C(=O)c2nc3ccc(-c4ccccc4)cc3s2)o1
